Results: patent publication US8357501B2, “Tissue protective erythropoietin receptor (NEPOR) and methods of use” (Molecular Health GmbH, priority 2007, dated 2013)
Read-outs that look alike come from different tables or passages of the source. [5mC] = 5-methylcytosine

How the values were obtained:
[1] = 351 patients receiving radiotherapy; 3 times per week, from 10 to 14 days before and through radiation therapy; placebo 15%; cited from earlier work
[2] = tested on: EphB4 expression in the transiently transfected 293T cell line; test: EphB4 knockdown by antisense ODN in transiently transfected cells; assay type: cell-based; settings: cytosine at the CpG site methylated, compared with AS-10; data not shown
erythropoiesis = settings: cited from earlier work
tissue injury = settings: wide variety of in vivo and in vitro models, cited from earlier work
HeyA8-MDR cells = test: EPH-B4 siRNA effect on tumor promoting effect of EPO in nude mice (FIG. 17); assay type: in vivo; settings: HeyA8 MDR i.p.
Procedure: Female nude mice were injected i.p. with 1×10^6 HeyA8-MDR cells. Day eight following injection the cells were treated with control siRNA-DOPC, EPH-B4 siRNA-DOPC, EPO, or in EPO+ control or EPH-B4 siRNA-DOPC (10 per group). (50 U EPO given 3× week, 5 μg siRNA 2× week). Mice were sacrificed on day 25 and tumor weights were measured. Statistics were done using students T-test. B) Distribution of tumor weight per group.
In these experiments we sought to determine the response to erythropoietin (EPO) treatment in a panel of ovarian cancer cell lines. […] It was then necessary to determine protein expression of these receptors in the panel. […] We then categorized these expression changes particularly with regard to the EPOR and EPH-B4 to then analyze the response to EPO treatment. We analyzed their response to chemotherapy in conjunction with EPO. […] It was then necessary to analyze the activation of signaling pathways known to be activated by these receptors in response to EPO treatment. Three cell lines were starved for two hours to isolate their response to EPO. […] We then sought to determine a EPO dose that optimized its tumor promoting effect in vivo. Female nude mice were injected i.p. with HeyA8 MDR (positive for both EPOR and EPH-B4). […] Treatment continued until tumors became evident, the mice were then sacrificed and the tumor weight was determined. […]

Question: Which “patients with increased haemoglobin levels” value [1] does the source give for “epoetin beta: EPO in the form of epoetin beta, NeoRecormon from Roche” here?
Answer: Its value is 82%.

Question: For “AS-10M: antisense ODN AS-10 with the cytosine at the CpG site methylated (ATGGAGGCCTCGCTCAGAAA; DNA, [5mC] at 11, backbone and methylation of C not given here; listed as Homo sapiens)”, which EphB4 knockdown efficiency [2] is on record?
Answer: Its EphB4 knockdown efficiency is “without any loss”.

Question: What does the source list for “CEpo: carbamylated Epo, does not stimulate erythropoiesis (Leist et al.)”?
Answer: stimulation of erythropoiesis / haematopoiesis (erythropoiesis): does not stimulate; stimulation of erythropoiesis / haematopoiesis (erythropoiesis; listed as carbamylated EPO): fail to induce haematopoiesis; tissue injury / neuroprotection (tissue injury): prevents; tissue injury / neuroprotection (tissue injury; listed as carbamylated EPO): neuroprotective

Question: Which “EPO induced tumor growth” value (HeyA8-MDR cells; siRNA 5 μg 2× week in conjunction with EPO 50 U 3× week) does the source give for “EPH-B4 siRNA: siRNA specific to EPH-B4, sense 5′CAGCCAAUAGCCACUCUAA3′ (SEQ ID NO: 266), antisense 5′UUAGAGUGGCUAUUGGCUG3′ (SEQ ID NO: 267) (listed as RNA, chemistry not given here; listed as Homo sapiens)” here?
Answer: Its value is “completely abrogated”.

Question: And the tumor growth (HeyA8-MDR cells; siRNA alone, 5 μg siRNA 2× week from day eight)?
Answer: Its tumor growth is “decrease”.
